Reference: US10765751B2, “pH sensitive carrier and preparation method thereof, and pH sensitive drug and pH sensitive drug composition each containing the carrier, and method for treating or preventing diseases using the same” (TERUMO KABUSHIKI KAISHA, priority 2012, dated 2020)

Tested on: RAW cells
Experiment: Evaluation of cytosolic delivery where pH sensitive carrier and physiologically active substance were used independently
Format: cell-based
Conditions: 30 μg/mL peptide-FITC or OVA-FITC, carrier added separately (160 nmol pH sensitive compound, 100 nmol amphipathic substance); FIG. 22
Method: On the previous day, RAW cells were spread on a matsunami glass bottom dish and cultured with 10% FBS-containing MEM. After rinsing with PBS, MEM was added, followed by a one hour incubation. 1900 μL of MEM containing fluorescence-labeled peptide-FITC or fluorescence-labeled OVA-FITC at a concentration of 30 μg/mL was prepared and substituted with the culture medium. Moreover, a solution of 100 μL of a pH sensitive carrier was added, followed by 16 to 20 hours of incubation in the culture medium in such a state that both were mixed. It was already confirmed that the fluorescence-labeled peptide-FITC and fluorescence-labeled OVA-FITC were each not supported with the pH sensitive carrier in a mixed state with a pH sensitive carrier-containing solution. After rinsing with PBS and three hours post-incubation with 2 mL of fresh MEM, the cells were rinsed with PBS, followed by substitution with phenol red-free DMEM and observation through a fluorescence microscope. The culture was carried out by use of an incubator (MCO20AIC) set at 5% CO2 and 37° C. and the cells were observed through a fluorescence microscope (Axiovert 200M—soft: Axio vision 3.0—light source: Fluo Arc).

In the case of “fluorescence-labeled OVA-FITC: FITC fluorescence-labeled OVA model protein”, the “localisation of fluorescence-labeled peptide-FITC or OVA-FITC in cells (cytosolic delivery)” value is reported as “remained in the endosome”.
